Assay results: patent US6764996B1, “9a-azalides with antibacterial activity” (Abbott Laboratories, priority 1999, dated 2004)

How the values were obtained:
Experiment in all cases: In vitro antibacterial activity, agar dilution MIC
Type in all cases: cell-based
[1] = tested on: Streptococcus bovis A-5169; details: code JJ: Streptococcus bovis A-5169; BHI agar, 35-37° C., 20 to 24 hours; unit assumed
Description: (§1) Representative compounds of the present invention were assayed in vitro for antibacterial activity as follows: Twelve petri dishes containing successive aqueous dilutions of the test compound mixed with 10 mL of sterilized Brain Heart Infusion (BHI) agar (Difco 0418-01-5) were prepared. Each plate was inoculated with 1:100 (or 1:10 for slow-growing strains, such as Micrococcus and Streptococcus) dilutions of up to 32 different microorganisms, using a Steers replicator block. The inoculated plates were incubated at 35-37° C. for 20 to 24 hours. In addition, a control plate, using BHI agar containing no test compound, was prepared and incubated at the beginning and end of each test.
(§2) An additional plate containing a compound having known susceptibility patterns for the organisms being tested and belonging to the same antibiotic class as the test compound was also prepared and incubated as a further control, as well as to provide test-to-test comparability. Erythromycin A was used for this purpose.
(§3) After incubation, each plate was visually inspected. The minimum inhibitory concentration (MIC) was defined as the lowest concentration of drug yielding no growth, a slight haze, or sparsely isolated colonies on the inoculum spot as compared to the growth control.

[2] = tested on: Staphylococcus epidermidis 3519; details: code HH: Staphylococcus epidermidis 3519; BHI agar, 35-37° C., 20 to 24 hours; unit assumed
Description: as §1, §2, §3

[3] = tested on: Streptococcus Pneumonia ATCC 6303; details: code XX: Streptococcus Pneumonia ATCC 6303; BHI agar, 35-37° C., 20 to 24 hours; unit assumed
Description: as §1, §2, §3

[4] = tested on: Staphylococcus aureus A-5177; details: code BB: Staphylococcus aureus A-5177; BHI agar, 35-37° C., 20 to 24 hours; unit assumed
Description: as §1, §2, §3

[5] = tested on: Streptococcus agalactiae CMX 508; details: code KK: Streptococcus agalactiae CMX 508; BHI agar, 35-37° C., 20 to 24 hours; unit assumed
Description: as §1, §2, §3

[6] = tested on: Nocardia Asteroides ATCC 99700; details: code VV: Nocardia Asteroides ATCC 99700; BHI agar, 35-37° C., 20 to 24 hours; unit assumed
Description: as §1, §2, §3

[7] = tested on: Mycobacterium smegmatis ATCC 114; details: code UU: Mycobacterium smegmatis ATCC 114; BHI agar, 35-37° C., 20 to 24 hours; unit assumed
Description: as §1, §2, §3

Escherichiacoli JUHL = details: code QQ: Escherichiacoli JUHL; BHI agar, 35-37° C., 20 to 24 hours; unit assumed
Description: as §1, §2, §3

[8] = tested on: Streptococcus Pneumonia 5649; details: code ZA: Streptococcus Pneumonia 5649; BHI agar, 35-37° C., 20 to 24 hours; unit assumed
Description: as §1, §2, §3

[9] = tested on: Micrococcusluteus ATCC 4698; details: code PP: Micrococcusluteus ATCC 4698; BHI agar, 35-37° C., 20 to 24 hours; unit assumed
Description: as §1, §2, §3

[10] = tested on: Streptococcus pyogenes 930; details: code MM: Streptococcus pyogenes 930; BHI agar, 35-37° C., 20 to 24 hours; unit assumed
Description: as §1, §2, §3

Escherichiacoli SS = details: code RR: Escherichiacoli SS; BHI agar, 35-37° C., 20 to 24 hours; unit assumed
Description: as §1, §2, §3

Candida albicans CCH 442 = details: code TT: Candida albicans CCH 442; BHI agar, 35-37° C., 20 to 24 hours; unit assumed
Description: as §1, §2, §3

[11] = tested on: Staphylococcus aureus NCTC 10649M; details: code EE: Staphylococcus aureus NCTC 10649M; BHI agar, 35-37° C., 20 to 24 hours; unit assumed
Description: as §1, §2, §3

[12] = tested on: Haemophilislnfluenzae DILL AMP R; details: code WW: Haemophilislnfluenzae DILL AMP R; BHI agar, 35-37° C., 20 to 24 hours; unit assumed
Description: as §1, §2, §3

[13] = tested on: Staphylococcus aureus ATCC 6538P; details: code AA: Staphylococcus aureus ATCC 6538P; BHI agar, 35-37° C., 20 to 24 hours; unit assumed
Description: as §1, §2, §3

[14] = tested on: Staphylococcus aureus A-5278; details: code CC: Staphylococcus aureus A-5278; BHI agar, 35-37° C., 20 to 24 hours; unit assumed
Description: as §1, §2, §3

[15] = tested on: Streptococcus pyogenes PIU 2548; details: code NN: Streptococcus pyogenes PIU 2548; BHI agar, 35-37° C., 20 to 24 hours; unit assumed
Description: as §1, §2, §3

[16] = tested on: Streptococcus Pneumonia GYR 1171; details: code YY: Streptococcus Pneumonia GYR 1171; BHI agar, 35-37° C., 20 to 24 hours; unit assumed
Description: as §1, §2, §3

[17] = tested on: Staphylococcus aureus 1775; details: code GG: Staphylococcus aureus 1775; BHI agar, 35-37° C., 20 to 24 hours; unit assumed
Description: as §1, §2, §3

[18] = tested on: Streptococcus pyogenes EES61; details: code LL: Streptococcus pyogenes EES61; BHI agar, 35-37° C., 20 to 24 hours; unit assumed
Description: as §1, §2, §3

[19] = tested on: Streptococcus Pneumonia 5979; details: code ZZ: Streptococcus Pneumonia 5979; BHI agar, 35-37° C., 20 to 24 hours; unit assumed
Description: as §1
An additional plate containing a compound having known susceptibility patterns for the organisms being tested and belonging to the same antibiotic class as the test compound was also prepared and incubated as a further control, as well as to provide test-to-test comparability.
as §3

Compound | Antibacterial Activity (MIC) [1] [µg/mL] | Antibacterial Activity (MIC) [2] [µg/mL] | Antibacterial Activity (MIC) [3] [µg/mL] | Antibacterial Activity (MIC) [4] [µg/mL] | Antibacterial Activity (MIC) [5] [µg/mL] | Antibacterial Activity (MIC) [6] [µg/mL] | Antibacterial Activity (MIC) [7] [µg/mL] | Antibacterial Activity (MIC) (Escherichiacoli JUHL) [µg/mL] | Antibacterial Activity (MIC) [8] [µg/mL] | Antibacterial Activity (MIC) [9] [µg/mL] | Antibacterial Activity (MIC) [10] [µg/mL] | Antibacterial Activity (MIC) (Escherichiacoli SS) [µg/mL] | Antibacterial Activity (MIC) (Candida albicans CCH 442) [µg/mL] | Antibacterial Activity (MIC) [11] [µg/mL] | Antibacterial Activity (MIC) [12] [µg/mL] | Antibacterial Activity (MIC) [13] [µg/mL] | Antibacterial Activity (MIC) [14] [µg/mL] | Antibacterial Activity (MIC) [15] [µg/mL] | Antibacterial Activity (MIC) [16] [µg/mL] | Antibacterial Activity (MIC) [17] [µg/mL] | other results
CC[C@H]1OC(=O)[C@H](C)[C@@H](O[C@H]2C[C@@](C)(OC)[C@@H](O)[C@H](C)O2)[C@H](C)[C@@H](O[C@@H]2O[C@H](C)C[C@H](N(C)C)[C@H]2O)[C@](C)(O)C[C@@H](C)C(=O)[C@H](C)[C@@H](O)[C@]1(C)O [Ery. A, Erythromycin A, reference compound] | 0.02 | 0.39 | 0.06 | 3.1 | 0.05 | 0.1 | 3.1 | > 100 | 16 | 0.2 | > 100 | 0.78 | > 100 | 0.39 | 4 | 0.2 | > 100 | 6.2 | 0.06 | > 100 | Antibacterial Activity (MIC) [18]: 0.05 µg/mL
C=CCOC1(C)CC(C)CNC(C)C(O)C(C)(O)C(CC)OC(=O)C(C)C(OC2CC(C)(OC)C(O)C(C)O2)C(C)C1OC1OC(C)CC(N(C)C)C1O (stereo not shown) [Example 2, Compound of formula (I): R^1 is —CH2CH═CH2, R^4 is hydrogen, R^5 is hydrogen, R^6 is hydrogen, R^7 is hydrogen, R^8 is hydrogen] | 0.02 | 0.2 | 0.06 | 12.5 | 0.05 | 0.1 | 6.2 | 50 | 16 | 0.39 | > 100 | 0.78 | > 100 | 0.39 | 8 | 0.2 | > 100 | 6.2 | 0.06 | > 100 | Antibacterial Activity (MIC) [19]: > 128 µg/mL; Antibacterial Activity (MIC) [18]: 0.05 µg/mL
C=CCOC1(C)CC(C)CN(C)C(C)C(O)C(C)(O)C(CC)OC(=O)C(C)C(OC2CC(C)(OC)C(O)C(C)O2)C(C)C1OC1OC(C)CC(N(C)C)C1O (stereo not shown) [Example 3, Compound of formula (I): R^1 is —CH2CH═CH2, R^4 is hydrogen, R^5 is hydrogen, R^6 is methyl, R^7 is hydrogen, R^8 is hydrogen] | 0.05 | 0.39 | 0.06 | 12.5 | 0.1 | 0.1 | 6.2 | 50 | 8 | 0.39 | > 100 | 0.39 | > 100 | 0.39 | 8 | 0.2 | > 100 | 6.2 | 0.06 | > 100 | Antibacterial Activity (MIC) [19]: > 128 µg/mL; Antibacterial Activity (MIC) [18]: 0.05 µg/mL
C=CCOC1(C)CC(C)CN(C)C(C)C(O)C(C)(O)C(CC)OC(=O)C(C)C(O)C(C)C1OC1OC(C)CC(N(C)C)C1O (stereo not shown) [Example 4, Compound of formula (II): R^1 is —CH2CH═CH2, R^2 is hydrogen, R^3 is —OR^13, R^13 is hydrogen, R^4 is hydrogen, R^5 is hydrogen, R^6 is methyl, R^8 is hydrogen] | 0.02 | 0.39 | 0.03 | 6.2 | 0.05 | 0.05 | 6.2 | 50 | 8 | 0.39 | > 100 | 0.78 | > 100 | 0.39 | 4 | 0.39 | > 100 | 6.2 | 0.03 | > 100 | Antibacterial Activity (MIC) [19]: > 128 µg/mL; Antibacterial Activity (MIC) [18]: 0.05 µg/mL
CCC1OC(=O)C(C)C(=O)C(C)C(OC2OC(C)CC(N(C)C)C2O)C(C)(OCC=Cc2cnc3ccccc3c2)CC(C)CN(C)C(C)C(O)C1(C)O (stereo not shown) [Example 5, Compound of formula (II): R^1 is —CH2CH═CH-(3-quinolinyl), R^2 and R^3 together are oxo, R^4 is hydrogen, R^5 is hydrogen, R^6 is methyl, R^8 is hydrogen] | 0.02 | 0.2 | 0.06 | 12.5 | 0.05 | 0.1 | 6.2 | 50 | 8 | 0.39 | > 100 | 0.78 | > 100 | 0.39 | 4 | 0.2 | > 100 | 6.2 | 0.03 | > 100 | Antibacterial Activity (MIC) [19]: > 128 µg/mL; Antibacterial Activity (MIC) [18]: 0.05 µg/mL
